Assay results taken from article PMC9090415, “Discovery of small molecule inhibitors of Plasmodium falciparum apicoplast DNA polymerase” (Journal of Enzyme Inhibition and Medicinal Chemistry, 2022).

Molecular target: P. falciparum apicoplast DNA polymerase (Pf-apPOL) (Plasmodium falciparum, UniProt Q8ILY1)
Assay: Fluorescence-based high-throughput DNA polymerase assay (molecular beacon), primary screen and dose-response;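 on % inhibition ApPOL 90': test concentration in µM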;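 on % inhibition apPOL 180': test concentration in µM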
Assay type: biochemical
Method in brief: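 Single-point screening used 10 µM compound with 20 nM polymerase, 20 nM hairpin substrate and 6 µM dNTPs for 90 min at 25 °C. Confirmatory titrations (2.5–80 µM) followed fluorescence at three times, and IC50 was derived from a fit including a cooperativity term n.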

[1] = 'DNA Pol'; screening value, unit not given; 90 min, 10 µM
[2] = primary screen hit value, DNA Pol (186 hits); 90 min, 10 µM
[3] = supplemental file 2, sheet IC50 nontoxic compounds; Pf-apPOL

Chain of P. falciparum apicoplast DNA polymerase (Pf-apPOL) (Q8ILY1 entry or part of it): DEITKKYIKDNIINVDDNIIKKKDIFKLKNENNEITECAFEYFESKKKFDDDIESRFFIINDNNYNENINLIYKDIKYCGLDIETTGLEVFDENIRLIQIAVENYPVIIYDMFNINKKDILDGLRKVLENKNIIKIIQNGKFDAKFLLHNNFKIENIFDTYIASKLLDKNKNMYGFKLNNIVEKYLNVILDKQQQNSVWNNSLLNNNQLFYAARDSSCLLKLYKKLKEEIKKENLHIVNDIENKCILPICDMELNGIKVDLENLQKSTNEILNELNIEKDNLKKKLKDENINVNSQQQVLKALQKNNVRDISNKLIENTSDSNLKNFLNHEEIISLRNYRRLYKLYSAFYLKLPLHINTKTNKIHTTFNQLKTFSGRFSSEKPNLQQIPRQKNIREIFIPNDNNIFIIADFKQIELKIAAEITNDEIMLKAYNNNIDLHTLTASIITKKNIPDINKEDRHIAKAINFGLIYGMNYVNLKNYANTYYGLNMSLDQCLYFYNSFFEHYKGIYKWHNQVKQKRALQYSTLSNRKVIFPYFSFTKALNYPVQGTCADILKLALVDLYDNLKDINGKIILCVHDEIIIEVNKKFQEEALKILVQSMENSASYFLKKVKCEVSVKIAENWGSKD

Cc1cccc(CC(=O)N2CCc3c(nc4cc(-c5ccccc5)[nH]n4c3=O)C2)c1 [Molecule 12, Cc1cccc(c1)CC(=O)N1CCc2c(C1)nc1n(c2=O)[nH]c(c1)c1ccccc1]
% inhibition Apo pol 10' (DRC-1; 10'; concentration 2.5): 15% | % inhibition Apo pol 10' (DRC-1; 10'; concentration 5): 48% | % inhibition Apo pol 10' (DRC-1; 10'; concentration 10): 68% | % inhibition Apo pol 10' (DRC-1; 10'; concentration 20): 81% | % inhibition Apo pol 10' (DRC-1; 10'; concentration 40): 86% | % inhibition Apo pol 10' (DRC-1; 10'; concentration 80): 83% | % inhibition Apol 90' (DRC-1; 90'; concentration 2.5): 3.59% | % inhibition Apol 90' (DRC-1; 90'; concentration 5): 28% | % inhibition Apol 90' (DRC-1; 90'; concentration 10): 50% | % inhibition Apol 90' (DRC-1; 90'; concentration 20): 69% | % inhibition Apol 90' (DRC-1; 90'; concentration 40): 81% | % inhibition Apol 90' (DRC-1; 90'; concentration 80): 85% | % inhibition apPOL 180' (DRC-1; 180'; concentration 2.5): -4% | % inhibition apPOL 180' (DRC-1; 180'; concentration 5): 13% | % inhibition apPOL 180' (DRC-1; 180'; concentration 10): 32% | % inhibition apPOL 180' (DRC-1; 180'; concentration 20): 55% | % inhibition apPOL 180' (DRC-1; 180'; concentration 40): 73% | % inhibition apPOL 180' (DRC-1; 180'; concentration 80): 82% | % inhibition Apo pol 5' (DRC-2, 5', concentration 10 (unit not given)): 44% | % inhibition Apo pol 5' (DRC-2, 5', concentration 40 (unit not given)): 48% | % inhibition Apol 40' (DRC-2, 40', concentration 40 (unit not given)): 66% | % inhibition ApPOL 90' (DRC-2, 90', concentration 20 (unit not given)): 66% | % inhibition ApPOL 90' (DRC-2, 90', concentration 40 (unit not given)): 70% | % inhibition apPOL 180' (DRC-2, 180', concentration 10 (unit not given)): 44% | % inhibition apPOL 180' (DRC-2, 180', concentration 40 (unit not given)): 70% | % inhibition apPOL 180' (DRC-2, 180', concentration 80 (unit not given)): 69% | % inhibition Apo pol 5' (DRC-2; 5'; concentration 2.5): 7% | % inhibition Apo pol 5' (DRC-2; 5'; concentration 5): 23% | % inhibition Apo pol 5' (DRC-2; 5'; concentration 10): 44% | % inhibition Apo pol 5' (DRC-2; 5'; concentration 20): 49% | % inhibition Apo pol 5' (DRC-2; 5'; concentration 40): 48% | % inhibition Apo pol 5' (DRC-2; 5'; concentration 80): 43% | % inhibition Apol 40' (DRC-2; 40'; concentration 2.5): 5.58% | % inhibition Apol 40' (DRC-2; 40'; concentration 5): 25% | % inhibition Apol 40' (DRC-2; 40'; concentration 10): 54% | % inhibition Apol 40' (DRC-2; 40'; concentration 20): 65% | % inhibition Apol 40' (DRC-2; 40'; concentration 40): 66% | % inhibition Apol 40' (DRC-2; 40'; concentration 80): 62% | % inhibition ApPOL 90' (DRC-2; 90'; concentration 2.5): 4.61% | % inhibition ApPOL 90' (DRC-2; 90'; concentration 5): 22% | % inhibition ApPOL 90' (DRC-2; 90'; concentration 10): 53% | % inhibition ApPOL 90' (DRC-2; 90'; concentration 20): 66% | % inhibition ApPOL 90' (DRC-2; 90'; concentration 40): 70% | % inhibition ApPOL 90' (DRC-2; 90'; concentration 80): 67% | % inhibition apPOL 180' (DRC-2; 180'; concentration 2.5): 2.3% | % inhibition apPOL 180' (DRC-2; 180'; concentration 5): 12% | % inhibition apPOL 180' (DRC-2; 180'; concentration 10): 44% | % inhibition apPOL 180' (DRC-2; 180'; concentration 20): 63% | % inhibition apPOL 180' (DRC-2; 180'; concentration 40): 70% | % inhibition apPOL 180' (DRC-2; 180'; concentration 80): 69% | % inhibition Apo pol 10' (first dose-response, 10', concentration 5 (unit not given)): 48% | % inhibition Apo pol 10' (first dose-response, 10', concentration 20 (unit not given)): 81% | % inhibition Apol 90' (first dose-response, 90', concentration 20 (unit not given)): 69% | % inhibition Apol 90' (first dose-response, 90', concentration 40 (unit not given)): 81% | DNA Pol (primary screen value of the 186 hits; unit not given; 90 min, 10 µM): 49 | DNA Pol (primary screen value, head "DNA Pol", unit not given; 90 min, 10 µM): 49

CSC(C)C(=O)C=CN(C)C (stereo not drawn) [Molecule 71, CSC(C(=O)C=CN(C)C)C]
DNA Pol [1]: 74 | % inhibition Apo pol 10' (DRC-1; 10'; concentration 2.5): 3.1346% | % inhibition Apo pol 10' (DRC-1; 10'; concentration 5): 9.272% | % inhibition Apo pol 10' (DRC-1; 10'; concentration 10): 23.0547% | % inhibition Apo pol 10' (DRC-1; 10'; concentration 20): 40.6618% | % inhibition Apo pol 10' (DRC-1; 10'; concentration 40): 61.0031% | % inhibition Apo pol 10' (DRC-1; 10'; concentration 80): 73.8561% | % inhibition Apol 90' (DRC-1; 90'; concentration 2.5): -5.565% | % inhibition Apol 90' (DRC-1; 90'; concentration 5): -2.761% | % inhibition Apol 90' (DRC-1; 90'; concentration 10): 6.496% | % inhibition Apol 90' (DRC-1; 90'; concentration 20): 18.7859% | % inhibition Apol 90' (DRC-1; 90'; concentration 40): 40.8686% | % inhibition Apol 90' (DRC-1; 90'; concentration 80): 61.3008% | % inhibition apPOL 180' (DRC-1; 180'; concentration 2.5): -9.552% | % inhibition apPOL 180' (DRC-1; 180'; concentration 5): -9.951% | % inhibition apPOL 180' (DRC-1; 180'; concentration 10): -3.723% | % inhibition apPOL 180' (DRC-1; 180'; concentration 20): 5.025% | % inhibition apPOL 180' (DRC-1; 180'; concentration 40): 23.5627% | % inhibition apPOL 180' (DRC-1; 180'; concentration 80): 48.8803% | % inhibition Apo pol 5' (DRC-2, 5', concentration 2.5): 11% | % inhibition Apo pol 5' (DRC-2, 5', concentration 5): 14% | % inhibition Apo pol 5' (DRC-2, 5', concentration 10): 26% | % inhibition Apo pol 5' (DRC-2, 5', concentration 20): 41% | % inhibition Apo pol 5' (DRC-2, 5', concentration 40): 46% | % inhibition Apo pol 5' (DRC-2, 5', concentration 80): 48% | % inhibition Apol 40' (DRC-2, 40', concentration 2.5): 11% | % inhibition Apol 40' (DRC-2, 40', concentration 5): 11% | % inhibition Apol 40' (DRC-2, 40', concentration 10): 21% | % inhibition Apol 40' (DRC-2, 40', concentration 20): 42% | % inhibition Apol 40' (DRC-2, 40', concentration 40): 50% | % inhibition Apol 40' (DRC-2, 40', concentration 80): 62% | % inhibition ApPOL 90' (DRC-2, 90', concentration 2.5): 9% | % inhibition ApPOL 90' (DRC-2, 90', concentration 5): 6% | % inhibition ApPOL 90' (DRC-2, 90', concentration 10): 15% | % inhibition ApPOL 90' (DRC-2, 90', concentration 20): 39% | % inhibition ApPOL 90' (DRC-2, 90', concentration 40): 47% | % inhibition ApPOL 90' (DRC-2, 90', concentration 80): 64% | % inhibition apPOL 180' (DRC-2, 180', concentration 2.5): 4% | % inhibition apPOL 180' (DRC-2, 180', concentration 5): 0.715% | % inhibition apPOL 180' (DRC-2, 180', concentration 10): 5.41% | % inhibition apPOL 180' (DRC-2, 180', concentration 20): 31% | % inhibition apPOL 180' (DRC-2, 180', concentration 40): 37% | % inhibition apPOL 180' (DRC-2, 180', concentration 80): 65% | % inhibition Apo pol 5' (conc 2.5 (unit not given); 5'; DRC-2): 11% | % inhibition Apol 40' (conc 2.5 (unit not given); 40'; DRC-2): 11% | % inhibition Apol 40' (conc 5 (unit not given); 40'; DRC-2): 11% | DNA Pol [2]: 74

CN(C)C=C1SCc2ccccc2C1=O [Molecule 77]
IC50 [3]: 23.7 µM

CCOc1ccccc1-c1nc(-c2ccc(=O)[nH]c2)no1 [Molecule 76, CCOc1ccccc1c1onc(n1)c1ccc(=O)[nH]c1]
DNA Pol [1]: 20 | % inhibition Apo pol 10' (DRC-1; 10'; concentration 2.5): 0.6967% | % inhibition Apo pol 10' (DRC-1; 10'; concentration 5): 11.2745% | % inhibition Apo pol 10' (DRC-1; 10'; concentration 10): 18.9586% | % inhibition Apo pol 10' (DRC-1; 10'; concentration 20): 38.1067% | % inhibition Apo pol 10' (DRC-1; 10'; concentration 40): 53.5893% | % inhibition Apo pol 10' (DRC-1; 10'; concentration 80): 52.085% | % inhibition Apol 90' (DRC-1; 90'; concentration 2.5): 1.791% | % inhibition Apol 90' (DRC-1; 90'; concentration 5): 6.12% | % inhibition Apol 90' (DRC-1; 90'; concentration 10): 9.377% | % inhibition Apol 90' (DRC-1; 90'; concentration 20): 23.8682% | % inhibition Apol 90' (DRC-1; 90'; concentration 40): 40.5664% | % inhibition Apol 90' (DRC-1; 90'; concentration 80): 58.194% | % inhibition apPOL 180' (DRC-1; 180'; concentration 2.5): 0.4069% | % inhibition apPOL 180' (DRC-1; 180'; concentration 5): -0.1254% | % inhibition apPOL 180' (DRC-1; 180'; concentration 10): 3.145% | % inhibition apPOL 180' (DRC-1; 180'; concentration 20): 13.7998% | % inhibition apPOL 180' (DRC-1; 180'; concentration 40): 29.3034% | % inhibition apPOL 180' (DRC-1; 180'; concentration 80): 52.1842% | % inhibition Apo pol 5' (DRC-2, 5', concentration 2.5): -5.31% | % inhibition Apo pol 5' (DRC-2, 5', concentration 5): 5% | % inhibition Apo pol 5' (DRC-2, 5', concentration 10): 19% | % inhibition Apo pol 5' (DRC-2, 5', concentration 20): 30% | % inhibition Apo pol 5' (DRC-2, 5', concentration 40): 44% | % inhibition Apo pol 5' (DRC-2, 5', concentration 80): 29% | % inhibition Apol 40' (DRC-2, 40', concentration 2.5): 0.0959% | % inhibition Apol 40' (DRC-2, 40', concentration 5): 6.65% | % inhibition Apol 40' (DRC-2, 40', concentration 10): 18% | % inhibition Apol 40' (DRC-2, 40', concentration 20): 30% | % inhibition Apol 40' (DRC-2, 40', concentration 40): 50% | % inhibition Apol 40' (DRC-2, 40', concentration 80): 55% | % inhibition ApPOL 90' (DRC-2, 90', concentration 2.5): -0.625% | % inhibition ApPOL 90' (DRC-2, 90', concentration 5): 5% | % inhibition ApPOL 90' (DRC-2, 90', concentration 10): 15% | % inhibition ApPOL 90' (DRC-2, 90', concentration 20): 26% | % inhibition ApPOL 90' (DRC-2, 90', concentration 40): 48% | % inhibition ApPOL 90' (DRC-2, 90', concentration 80): 56% | % inhibition apPOL 180' (DRC-2, 180', concentration 2.5): -3% | % inhibition apPOL 180' (DRC-2, 180', concentration 5): 1.18% | % inhibition apPOL 180' (DRC-2, 180', concentration 10): 8% | % inhibition apPOL 180' (DRC-2, 180', concentration 20): 16% | % inhibition apPOL 180' (DRC-2, 180', concentration 40): 37% | % inhibition apPOL 180' (DRC-2, 180', concentration 80): 54% | % inhibition Apo pol 5' (conc 5 (unit not given); 5'; DRC-2): 5% | % inhibition ApPOL 90' (conc 5 (unit not given); 90'; DRC-2): 5% | % inhibition Apo pol 5' (conc 20 (unit not given); 5'; DRC-2): 30% | % inhibition Apol 40' (conc 20 (unit not given); 40'; DRC-2): 30% | DNA Pol [2]: 20

CN1CC(=Cc2ccco2)C(=O)C(=Cc2ccco2)C1 [Molecule 65]
IC50 [3]: 7.51 µM
